{"source": "patent US4822791A", "about": "“Pharmaceutical compositions of-2,2-1,1-[bis-2,2'-(3,1-benzoxazin-4-one)9 ethylenes” (priority 1984, dated 1989)", "key": {"[1]": {"test_system": "anaphylaxis reaction to inhalated antigen", "test": "Antigen inhalation test on passive sensitized guinea pig (experimental asthma model)", "type": "in vivo", "conditions": "200 mg/kg po", "experimental": "The test compound and Tranilast were respectively suspended at the time of use in 5% gum arabic solution containing 0.1% Tween 80 at the rate of 40 mg/ml, and were perorally administered at the rate of 0.5 ml per 100 g body weight of the animal.\nDSCG was dissolved at the time of use in physiological saline solultion for injection at the rate of 5.0 mg/ml, and was intravenously injected at the rate of 0.1 ml per 100 g body weight of the animal.\nAnti-ovalbumin rabbit serum diluted with physiological saline solution for injection so as tc contain anti-ovalbumin rabbit antibody at the rate of 0.187 mg N/ml was intravenously administered to guinea pig at the rate of 0.1 ml per 100 g of body weight and it was passively sensitized.\nTwenty-four hours later, the suspension of the compound prepared in (1) above was perorally or intravenously administered to the animal. The animal was put in the inhalation chamber one hour after the administration in case of the peroral administration and five minutes after the administration in case of the intravenous administration, and 2% physiological saline solution of antigen ovalbumin was inhaled by spraying. Over 10 minutes' period from the time immediately after the forced inhalation, the time until its fall attributed to anaphylaxis reaction was recorded, and the numbers of alive and dead animals after lapse of 10 minutes were also counted."}, "[2]": {"test_system": "experimental ulcer model (Shay)", "test": "Anti-ulcer activity in experimental ulcer model (Shay)", "type": "in vivo, Wistar strain male rats", "method_in_brief": "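Wistar male rats, 8 weeks old, 5 per group, fasted 48 h, pylorus ligated under ether (Shay method); compound in 0.5% CMC/0.1% Tween 80 given id or ip, vehicle to controls. Stomach removed 8 h later; ulcers scored, gastric juice volume, acidity (alkali titration), pepsin (haemoglobin substrate) expressed as % inhibition versus control mean.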"}, "hyaluronidase": {"molecular_target": "T1, hyaluronidase (Bos taurus, UniProt Q2YDK3)", "T1 sequence (Q2YDK3 36-553)": "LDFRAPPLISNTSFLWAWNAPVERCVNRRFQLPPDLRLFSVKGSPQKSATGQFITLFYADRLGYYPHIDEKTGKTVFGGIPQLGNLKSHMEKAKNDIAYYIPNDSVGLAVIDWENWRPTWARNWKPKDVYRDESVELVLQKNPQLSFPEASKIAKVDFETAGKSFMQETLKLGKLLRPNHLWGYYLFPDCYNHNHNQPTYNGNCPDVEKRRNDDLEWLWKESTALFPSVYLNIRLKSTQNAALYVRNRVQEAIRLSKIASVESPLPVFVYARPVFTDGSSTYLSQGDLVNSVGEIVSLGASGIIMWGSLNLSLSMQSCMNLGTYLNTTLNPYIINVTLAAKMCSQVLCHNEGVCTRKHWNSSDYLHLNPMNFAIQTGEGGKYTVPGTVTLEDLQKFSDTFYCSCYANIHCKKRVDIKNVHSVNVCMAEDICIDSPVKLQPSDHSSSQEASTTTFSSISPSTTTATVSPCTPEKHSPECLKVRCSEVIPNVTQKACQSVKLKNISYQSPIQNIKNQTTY", "test": "Anti-hyaluronidase activity (modified Morgan-Elson method)", "type": "biochemical", "conditions": "hyaluronidase 340NF unit/ml; activating agent Compound 48/80 or CaCl2; read-out: IC50", "experimental": "A buffer soluticn of hyaluronidase (0.1 ml) was taken in a test tube and 0.2 ml each of the buffer solution of various compounds in various concentrations was added, and the mixture was preincubated at 37° C. for 20 minutes. Then, an activating agent (Compound 48/80 or CaCl2) (0.2 ml) was added to make the total amount 0.5 ml, which was incubated at 37° C. for 20 minutes. Then, potassium hyaluronate buffer solution (0.5 ml) was added, and the mixture was incubated at 37° C. for 40 minutes. After cooling, the mixture was treated with aqueous solution of 0.4N NaOH (0.2 ml) and neutralized to stop the reaction. The resulting product was subjecred to measurement of OD585 by the modified Morgan-Elson Method. […] (The final ccncentration of hyaluronidase was 340NF unit/ml.) [formula]"}, "[3]": {"test": "Acute toxicity LD50 in mice (Test Example 8)", "conditions": "mouse, in vivo, one week, Probit method", "procedure": "(§1) ddy-Strain mice (male) and Wistar strain rats were used to obtain LD50 values.\n(§2) According to the ordinary procedure, suspension or solution of test sample was administered to the animals. From the number of the died animals until one week after the administration, LD50 values were obtained by Probit method."}, "[4]": {"test_system": "mast cell in abdominal cavity", "test": "Inhibition of histamine release from mast cell in abdominal cavity in rat (Test Example 6)", "type": "cell-based", "procedure": "Examination was made on the activity of inhibition of histamine release from mast cell by antigen-antibody reaction.\nSwine ascaris extract solution was dinitrophenylated according to Aisen's method, dialysed, and lyophilized. The product was administered as antigen together with Bordetella Pertussis vaccine subcutaneously into the foot pad of rat. Eight days later, blood was taken to obtain antiserum. The PCA titer for this antiserum in rat was 32 to 64.\nHeparin-containing PBS was injected intraperitoneally to rat which was sacrificed by exsanguination, after which the abdomen was well massaged to collect the injected PBS, which was purified by washing several times by centrifugation. The number of the mast cells contained in the solution was determined and adjusted to the designed concentration. As to method of sensitizing the cell, the above cell suspension (6 ml, 2×10^6 cells/ml) was treated with anti-DNP-Ascaris rat serum (PCA titer 32) (6 ml) and the mixture was incubated in the presence of hepain at 37° C. for 2 hours.\nTo the sensitized mast cell suspension the solution of the drug to be tested was added, and the mixture was preliminarily incubated at 37° C. for 12 minutes. After addition of the solution of antigen DNP-Ascaris (final concentration, 20 microgramms/ml), the mixture was further incubated for 20 minutes. After completion of the reaction, the solution was centrifuged (500 G, 10 min.) under a low temperature to obtain a supernatant solution. Histamine contained in the supernatant solution was subjected to fluorometry by crthophthalaldehyde method."}, "[5]": {"test": "Acute toxicity LD50 in rats (Test Example 8)", "conditions": "rat, in vivo, po; one week; Probit method; read-out: LD50 value (mg/kg body weight) Rat p.o.", "procedure": "as §1, §2"}, "SRS-A": {"test_system": "SRS-A", "test": "Anti-SRS-A activity, contraction of guinea pig ileum by crude SRS-A solution", "design": "key to Anti-SRS-A activity (rate of inhibition against the contraction amount): % inhibition of SRS-A-induced ileum contraction", "procedure": "A piece of lungs of guinea pig sensitized with ovalbumin was incubated with antigen ovalbumin at 37° C. for 20 minutes to obtain a supernatant solution, which was used as a crude SRS-A solution.\nA piece of ileum of normal guinea pig was suspended in Magnus tube filled with Tyrode's solution and incubated with the solution of drug to be examined for a certain duration, and the contraction of the piece of ileum induced by adding the above crude SRS-A solution was determined on the basis of the contraction rate attributed to hystamine dihydrochloride 10^-6 M. The rate of inhibition against the contraction amount was taken as anti-SRS-A activity."}, "[6]": {"test_system": "passive systemic anaphylaxis (PSA)", "test": "Preventive activity against passive systemic anaphylaxis (PSA) in guinea pig", "type": "in vivo, Hartley strain female guinea pig", "experimental": "Effect of the compound on prevention of death by passive systemic anaphylaxis was examined in guinea pig.\nNormal Hartley strain female guinea pig (body weight, 240-260 g) was sensitized by intravenous administraticn of anti-ovalbumin rabbit serum. It was perorally administered with the compound 11 in the amount of 200 mg/kg. One hour later, it was intravenously administered with 2% physiological saline solution of antigen ovalbumin at the rate of 0.05 ml. Thereafter, the state was observed, and the time (seconds) until death was measured."}}, "note": "Several values for one entry are separate records, joined by “and”; a condition that tells them apart may be missing. Identical values can stand only once."}
{"smiles": "O=C(Nc1ccccc1C(=O)O)C(=Cc1ccccc1)C(=O)Nc1ccccc1C(=O)O", "note": "[Compound 11, 2,2'-[(1,3-dioxo-2-phenylmethylene-1,3-propanediyl)diimino]bisbenzoic acid]", "values": [{"measurement": "Extended rate (%)", "setting": "[1]", "value": 43.5, "unit": "%"}, {"measurement": "preventive effect on anaphylaxis reaction (in words)", "setting": "[1]", "value": "strong preventive effect"}, {"measurement": "Average time for falling Mean ± S.E.", "setting": "[1]; N 5", "value": "223.0 ± 15.7", "unit": "s"}, {"measurement": "Required time (sec.) for falling and Number of death (#), single animals", "setting": "[1]; N 5, observed 10 minutes, # shows death", "value": "194 s and 227 s and 248 s and > 600 s"}, {"measurement": "Inhibition % Gastric Acidity", "setting": "[2]; id 100 mg/kg", "value": 4.7, "unit": "%"}, {"measurement": "Inhibition % secretion amount of gastric juice", "setting": "[2]; id 100 mg/kg", "value": 0, "unit": "%"}, {"measurement": "Inhibition % total pepsin titer", "setting": "[2]; id 100 mg/kg", "value": 0, "unit": "%"}, {"measurement": "Inhibition % Gastric Acidity", "setting": "[2]; id 200 mg/kg", "value": 16.5, "unit": "%"}, {"measurement": "Inhibition % secretion amount of gastric juice", "setting": "[2]; id 200 mg/kg", "value": 20.1, "unit": "%"}, {"measurement": "Inhibition % total pepsin titer", "setting": "[2]; id 200 mg/kg", "value": 9.1, "unit": "%"}, {"measurement": "IC50", "setting": "hyaluronidase", "value": 22, "unit": "µM"}, {"measurement": "LD50 at 168 h", "setting": "[3]; iv, read-out: LD50 value (mg/kg body weight) Mouse i.v.", "value": 344, "unit": "mg/kg"}, {"measurement": "LD50 at 168 h", "setting": "[3]; po, read-out: LD50 value (mg/kg body weight) Mouse p.o.", "value": "> 10000", "unit": "mg/kg"}, {"measurement": "activity at 1000 µM", "setting": "[4]; Rattus norvegicus, Mast cell, 20 min, 10^-3 M, DNP-Ascaris 20 microgramms/ml, read-out: Amount of histamine released from peritoneal mast cell (Control = 100)", "value": 13, "unit": "%"}, {"measurement": "activity at 100 µM", "setting": "[4]; Rattus norvegicus, Mast cell, 20 min, 10^-4 M, DNP-Ascaris 20 microgramms/ml, read-out: Amount of histamine released from peritoneal mast cell (Control = 100)", "value": 59, "unit": "%"}, {"measurement": "activity at 10 µM", "setting": "[4]; Rattus norvegicus, Mast cell, 20 min, 10^-5 M, DNP-Ascaris 20 microgramms/ml, read-out: Amount of histamine released from peritoneal mast cell (Control = 100)", "value": 51, "unit": "%"}, {"measurement": "activity at 1 µM", "setting": "[4]; Rattus norvegicus, Mast cell, 20 min, 10^-6 M, DNP-Ascaris 20 microgramms/ml, read-out: Amount of histamine released from peritoneal mast cell (Control = 100)", "value": 55, "unit": "%"}, {"measurement": "inhibition of release of histamine from the mast cell (in words)", "setting": "[4]; even at the low concentration of 10^-6 M", "value": "inhibiting release of histamine"}, {"measurement": "LD50 at 168 h", "setting": "[5]", "value": "> 10000", "unit": "mg/kg"}, {"measurement": "Anti-SRS-A activity (rate of inhibition against the contraction amount)", "setting": "SRS-A; 10^-3 M", "value": 31.8}, {"measurement": "Anti-SRS-A activity (rate of inhibition against the contraction amount)", "setting": "SRS-A; 10^-4 M", "value": 0}, {"measurement": "Anti-SRS-A activity (rate of inhibition against the contraction amount)", "setting": "SRS-A; 10^-5 M", "value": 0}, {"measurement": "Anti-SRS-A activity (rate of inhibition against the contraction amount)", "setting": "SRS-A; 10^-6 M", "value": 0}, {"measurement": "anti-SRS-A activity (in words)", "setting": "SRS-A; compound 11 at a concentration of 10^-3 M", "value": "moderate anti-SRS-A activity"}, {"measurement": "average living time", "setting": "[6]; 200 mg/kg perorally, control group 294.9 seconds", "value": 441.7, "unit": "s"}, {"measurement": "Extended rate (%)", "setting": "[6]; 200 mg/kg po", "value": 49.8, "unit": "%"}, {"measurement": "anti-PSA activity (in words)", "setting": "[6]; 200 mg/kg po", "value": "statistically significant anti-PSA activity"}, {"measurement": "Ave. time to death Mean ± S.E.", "setting": "[6]; 200 mg/kg po, N 10", "value": "441.70 ± 21.5", "unit": "s"}, {"measurement": "Required time (sec.) to death, single animals", "setting": "[6]; 200 mg/kg po, N 10", "value": "431 s and 548 s and 488 s and 475 s and 367 s and 492 s and 485 s and 352 s and 348 s"}]}
